The text below walks through data of the supplement of paper PMC10307832.

What all share (experiment): relative viability (nuclei count vs DMSO), 5 days (fraction); higher = more cells survive
Compound in the assay “AGI-6780 + Alpelisib”: O=C(Nc1cccc(C(F)(F)F)c1)Nc1cc(S(=O)(=O)NC2CC2)ccc1-c1ccsc1 [AGI-6780] + Cc1nc(NC(=O)N2CCC[C@H]2C(N)=O)sc1-c1ccnc(C(C)(C)C(F)(F)F)c1 [Alpelisib] (partner 2 µM)
A digest of the protocol:
(§1)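 Lung cancer cell lines were pin-tool dosed in 1536-well plates on the day after seeding, with either a lone drug or a fixed anchor-drug dose plus five library-drug doses (not always all listed) in √10 steps. Nuclei were counted on 4× images after 5 days. Relative viability is the ratio of treated-well to vehicle-well nuclei counts, with each value a median of duplicate plates.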

Compound in the assay “AGI-6780 + Palbociclib”: O=C(Nc1cccc(C(F)(F)F)c1)Nc1cc(S(=O)(=O)NC2CC2)ccc1-c1ccsc1 [AGI-6780] + CC(=O)c1c(C)c2cnc(Nc3ccc(N4CCNCC4)cn3)nc2n(C2CCCC2)c1=O [Palbociclib] (partner 0.5 µM)
A digest of the protocol: as §1

Compound in the assay “AGI-6780 + Bortezomib”: O=C(Nc1cccc(C(F)(F)F)c1)Nc1cc(S(=O)(=O)NC2CC2)ccc1-c1ccsc1 [AGI-6780] + CC(C)C[C@H](NC(=O)[C@H](Cc1ccccc1)NC(=O)c1cnccn1)B(O)O [Bortezomib] (partner 0.002 µM)
A digest of the protocol: as §1

Compound in the assay “AGI-6780 + Dasatinib”: O=C(Nc1cccc(C(F)(F)F)c1)Nc1cc(S(=O)(=O)NC2CC2)ccc1-c1ccsc1 [AGI-6780] + Cc1nc(Nc2ncc(C(=O)Nc3c(C)cccc3Cl)s2)cc(N2CCN(CCO)CC2)n1 [Dasatinib] (partner 0.075 µM)
A digest of the protocol:
as §1

As for NCI-H2228, the relative viability with AGI-6780 + Alpelisib (first compound 0.08 µM) came out at 0.904; with AGI-6780 + Alpelisib (first compound 0.253 µM), 0.831; with AGI-6780 + Alpelisib (first compound 0.8 µM), 0.563; with AGI-6780 + Alpelisib (first compound 2.53 µM), 0.618; with AGI-6780 + Alpelisib (first compound 8 µM), 0.635; in the assay with AGI-6780 + Palbociclib (first compound 0.08 µM), 0.726. In addition, the relative viability with AGI-6780 + Palbociclib (first compound 0.253 µM) came out at 0.961; with AGI-6780 + Palbociclib (first compound 0.8 µM), 0.631; with AGI-6780 + Palbociclib (first compound 2.53 µM) it was 0.667; with AGI-6780 + Palbociclib (first compound 8 µM) it was 0.766; with AGI-6780 + Bortezomib (first compound 0.08 µM) it was 1.11; with AGI-6780 + Bortezomib (first compound 0.253 µM), 1.07. Moreover, the relative viability in the assay with AGI-6780 + Bortezomib (first compound 0.8 µM) was determined as 0.811; with AGI-6780 + Bortezomib (first compound 2.53 µM) it was 0.896; with AGI-6780 + Bortezomib (first compound 8 µM) it was 0.886; with AGI-6780 + Dasatinib (first compound 0.08 µM), 0.528; in the assay with AGI-6780 + Dasatinib (first compound 0.253 µM) it was 0.555; in the assay with AGI-6780 + Dasatinib (first compound 0.8 µM) it was 0.468. Further, the relative viability in the assay with AGI-6780 + Dasatinib (first compound 2.53 µM) was determined as 0.381; with AGI-6780 + Dasatinib (first compound 8 µM), 0.545.

Regarding HOP-62, the relative viability with AGI-6780 + Alpelisib (first compound 0.08 µM) is 0.923; with AGI-6780 + Alpelisib (first compound 0.253 µM), 0.985; with AGI-6780 + Alpelisib (first compound 0.8 µM) it was 0.986; in the assay with AGI-6780 + Alpelisib (first compound 2.53 µM), 1.14; with AGI-6780 + Alpelisib (first compound 8 µM), 1.27; with AGI-6780 + Palbociclib (first compound 0.08 µM), 0.375. Moreover, the relative viability with AGI-6780 + Palbociclib (first compound 0.253 µM) is 0.47; with AGI-6780 + Palbociclib (first compound 0.8 µM) it was 0.516; with AGI-6780 + Palbociclib (first compound 2.53 µM), 0.467; in the assay with AGI-6780 + Palbociclib (first compound 8 µM) it was 0.543; with AGI-6780 + Bortezomib (first compound 0.08 µM) it was 0.496; in the assay with AGI-6780 + Bortezomib (first compound 0.253 µM), 0.818. In addition, the relative viability with AGI-6780 + Bortezomib (first compound 0.8 µM) was 0.737; in the assay with AGI-6780 + Bortezomib (first compound 2.53 µM), 1.02; with AGI-6780 + Bortezomib (first compound 8 µM) it was 0.763; in the assay with AGI-6780 + Dasatinib (first compound 0.08 µM), 0.713; with AGI-6780 + Dasatinib (first compound 0.253 µM), 0.642; with AGI-6780 + Dasatinib (first compound 0.8 µM), 0.633. For the same cell line, the relative viability with AGI-6780 + Dasatinib (first compound 2.53 µM) amounted to 0.634; with AGI-6780 + Dasatinib (first compound 8 µM), 0.63.

Turning to NCI-H322M, the relative viability with AGI-6780 + Alpelisib (first compound 0.08 µM) worked out at 0.902; in the assay with AGI-6780 + Alpelisib (first compound 0.253 µM), 0.917; with AGI-6780 + Alpelisib (first compound 0.8 µM), 0.88; with AGI-6780 + Alpelisib (first compound 2.53 µM), 0.906; in the assay with AGI-6780 + Alpelisib (first compound 8 µM), 0.827; with AGI-6780 + Palbociclib (first compound 0.253 µM), 0.516. Also, the relative viability with AGI-6780 + Palbociclib (first compound 0.8 µM) stood at 0.446; with AGI-6780 + Palbociclib (first compound 2.53 µM), 0.434; in the assay with AGI-6780 + Palbociclib (first compound 8 µM), 0.499; in the assay with AGI-6780 + Bortezomib (first compound 0.08 µM) it was 1.08; in the assay with AGI-6780 + Bortezomib (first compound 0.253 µM) it was 1.15; with AGI-6780 + Bortezomib (first compound 0.8 µM), 1.35. In addition, the relative viability came to 1.27 with AGI-6780 + Bortezomib (first compound 2.53 µM); 1.39 in the assay with AGI-6780 + Bortezomib (first compound 8 µM); 0.253 with AGI-6780 + Dasatinib (first compound 0.08 µM); 0.259 with AGI-6780 + Dasatinib (first compound 0.253 µM); 0.242 with AGI-6780 + Dasatinib (first compound 0.8 µM); 0.237 in the assay with AGI-6780 + Dasatinib (first compound 2.53 µM). The relative viability in the assay with AGI-6780 + Dasatinib (first compound 8 µM) was determined as 0.261.

On to HCC-78, for which the relative viability worked out at 0.366 with AGI-6780 + Alpelisib (first compound 0.08 µM); 0.331 with AGI-6780 + Alpelisib (first compound 0.253 µM); 0.462 with AGI-6780 + Alpelisib (first compound 0.8 µM); 0.32 with AGI-6780 + Alpelisib (first compound 2.53 µM); 0.361 with AGI-6780 + Alpelisib (first compound 8 µM); 0.457 in the assay with AGI-6780 + Palbociclib (first compound 0.08 µM). Also, the relative viability in the assay with AGI-6780 + Palbociclib (first compound 0.253 µM) worked out at 0.395; with AGI-6780 + Palbociclib (first compound 0.8 µM) it was 0.443; with AGI-6780 + Palbociclib (first compound 2.53 µM), 0.42; with AGI-6780 + Palbociclib (first compound 8 µM) it was 0.458; with AGI-6780 + Bortezomib (first compound 0.08 µM) it was 0.479; in the assay with AGI-6780 + Bortezomib (first compound 0.253 µM), 0.432. Further, the relative viability with AGI-6780 + Bortezomib (first compound 0.8 µM) came to 0.739; with AGI-6780 + Bortezomib (first compound 2.53 µM) it was 0.626; with AGI-6780 + Bortezomib (first compound 8 µM), 0.581; in the assay with AGI-6780 + Dasatinib (first compound 0.253 µM), 0.388; with AGI-6780 + Dasatinib (first compound 0.8 µM), 0.433; with AGI-6780 + Dasatinib (first compound 2.53 µM) it was 0.364. In addition, the relative viability with AGI-6780 + Dasatinib (first compound 8 µM) amounted to 0.351.
